From patent US20230277534A1 (Plexxikon Inc., priority 2011, published 2023)

Biological target: B-Raf V600E (Homo sapiens (Human), UniProt P15056, V600E)
Test: B-Raf V600E kinase biochemical activity assay (AlphaScreen, biotin-MEK1 substrate)
Settings: 100 μM ATP
Description: Assays for biochemical and cell based activity are known in the art, for example, as described in PCT publication WO 2007/002433, the disclosure of which is hereby incorporated by reference as it relates to such assays. For example, the biochemical activity IC50 values are determined with respect to inhibition of B-Raf V600E kinase activity or p-Erk kinase activity, where inhibition of phosphorylation of a peptide substrate is measured as a function of compound concentration. Compounds to be tested are diluted in dimethyl sulfoxide to a concentration of 0.1 mM. These are serially diluted 15 μL into 30 μL of dimethyl sulfoxide seven times in 96 well plates for a total of 8 dilution points, and for each dilution point 1 μL is added to a well of an assay plate. Plates are prepared such that each well in a 384 well plate contains 1 μL of compound in 10 μL volume with 0.1 ng Raf enzyme (i.e. any of B-Raf, c-Raf-1 or B-Raf V600E, Upstate Biotechnology or prepared by methods known to one of skill in the art), 50 mM HEPES, pH 7.0, 50 mM NaCl, 2 mM MgCl2, 1 mM MnCl2, 0.01% Tween-20, 1 mM DTT, and 100 nM biotin-MEK1 as substrate. The reaction is started with addition of 10 μL of 200 μM ATP (i.e. final 100 μM ATP). After incubation of the kinase reaction for 45 minutes at room temperature, 5 μL/well of Stop Solution is added (25 mM Hepes pH 7.5, 100 mM EDTA, 0.01% BSA with donor beads (Streptavidin coated beads, Perkin Elmer), acceptor beads (Protein A coated, Perkin Elmer), and anti phosphor MEK1/2 antibody (CellSignal), each at final concentration 10 μg/mL). The plates are incubated for 3 hours at room temperature and read on Envision reader (Perkin Elmer). Phosphorylation of Mek1 results in binding of the anti-phosphor-MEK1/2antibody and association of the donor and acceptor beads such that signal correlates with kinase activity. The signal vs. compound concentration is used to determine the IC50.

Sequence of B-Raf V600E (P15056 whole entry V600E): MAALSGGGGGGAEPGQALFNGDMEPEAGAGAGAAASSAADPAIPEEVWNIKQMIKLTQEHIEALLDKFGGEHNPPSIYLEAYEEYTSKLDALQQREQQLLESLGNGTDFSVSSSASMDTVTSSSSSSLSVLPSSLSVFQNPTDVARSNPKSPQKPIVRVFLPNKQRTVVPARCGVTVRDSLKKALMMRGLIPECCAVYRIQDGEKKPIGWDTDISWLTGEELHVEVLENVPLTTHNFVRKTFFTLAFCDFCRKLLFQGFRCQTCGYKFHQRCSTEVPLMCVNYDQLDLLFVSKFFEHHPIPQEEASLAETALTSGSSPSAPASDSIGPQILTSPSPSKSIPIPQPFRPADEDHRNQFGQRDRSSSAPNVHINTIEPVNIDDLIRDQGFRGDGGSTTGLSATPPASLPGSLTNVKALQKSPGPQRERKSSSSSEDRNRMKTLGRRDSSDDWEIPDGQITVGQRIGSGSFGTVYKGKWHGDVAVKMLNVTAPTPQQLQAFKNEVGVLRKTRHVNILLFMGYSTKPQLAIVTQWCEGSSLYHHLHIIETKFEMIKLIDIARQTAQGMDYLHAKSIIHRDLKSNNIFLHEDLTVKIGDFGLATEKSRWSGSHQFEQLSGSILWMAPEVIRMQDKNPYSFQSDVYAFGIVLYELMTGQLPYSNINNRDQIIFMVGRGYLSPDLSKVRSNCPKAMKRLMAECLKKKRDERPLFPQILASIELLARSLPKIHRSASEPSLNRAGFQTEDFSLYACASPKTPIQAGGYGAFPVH

Compound | IC50 [µM]
COC(=O)CCS(=O)(=O)Nc1cccc(C(=O)c2c[nH]c3ncc(-c4cnc(OC)nc4)cc23)c1F [Compound P-0066, methyl 3-[[2-fluoro-3-[5-(2-methoxypyrimidin-5-yl)-1H-pyrrolo[2,3-b]pyridine-3-carbonyl]phenyl]sulfamoyl]propanoate] | < 0.1
COc1ncc(-c2cnc3[nH]cc(C(=O)c4cccc(NS(=O)(=O)C5CC5)c4F)c3c2)cn1 [Compound P-0067, N-[2-fluoro-3-[5-(2-methoxypyrimidin-5-yl)-1H-pyrrolo[2,3-b]pyridine-3-carbonyl]phenyl]cyclopropanesulfonamide] | < 0.1
CCNS(=O)(=O)Nc1cccc(C(=O)c2c[nH]c3ncc(-c4cnc(OC)nc4)cc23)c1F [Compound P-0068, [3-(ethylsulfamoylamino)-2-fluoro-phenyl]-[5-(2-methoxypyrimidin-5-yl)-1H-pyrrolo[2,3-b]pyridin-3-yl]methanone] | < 0.1
CCNS(=O)(=O)Nc1cccc(C(=O)c2c[nH]c3ncc(I)cc23)c1F [Compound P-0069, [3-(ethylsulfamoylamino)-2-fluoro-phenyl]-(5-iodo-1H-pyrrolo[2,3-b]pyridin-3-yl)methanone] | < 0.1
COc1ncc(-c2cnc3[nH]cc(C(=O)c4cccc(NS(=O)(=O)N(C)C(C)C)c4F)c3c2)cn1 [Compound P-0075, 3-[2-fluoro-3-[[isopropyl(methyl)sulfamoyl]amino]benzoyl]-5-(2-methoxypyrimidin-5-yl)-1H-pyrrolo[2,3-b]pyridine] | > 0.1
CCCN(C)S(=O)(=O)Nc1ccc(F)c(C(=O)c2c[nH]c3ncc(-c4ccc(C5(C#N)CC5)cc4)cc23)c1F [Compound P-0079, 5-[4-(1-cyanocyclopropyl)phenyl]-3-[2,6-difluoro-3-[[methyl(propyl)sulfamoyl]amino]benzoyl]-1H-pyrrolo[2,3-b]pyridine] | < 0.1
CCCN(C)S(=O)(=O)Nc1cccc(C(=O)c2c[nH]c3ncc(-c4cnc(NC5CC5)nc4)cc23)c1F [Compound P-0082, 5-[2-(cyclopropylamino)pyrimidin-5-yl]-3-[2-fluoro-3-[[methyl(propyl)sulfamoyl]amino]benzoyl]-1H-pyrrolo[2,3-b]pyridine] | < 0.1
COc1ncc(-c2cnc3[nH]cc(C(=O)c4cccc(NS(=O)(=O)N(C)CC5CC5)c4F)c3c2)cn1 [Compound P-0083, 3-[3-[[cyclopropylmethyl(methyl)sulfamoyl]amino]-2-fluoro-benzoyl]-5-(2-methoxypyrimidin-5-yl)-1H-pyrrolo[2,3-b]pyridine] | < 0.1
CCCN(C)S(=O)(=O)Nc1cccc(C(=O)c2c[nH]c3ncc(-c4cnc(C5CC5)nc4)cc23)c1F [Compound P-0086, 5-(2-cyclopropylpyrimidin-5-yl)-3-[2-fluoro-3-[[methyl(propyl)sulfamoyl]amino]benzoyl]-1H-pyrrolo[2,3-b]pyridine] | < 0.1
CCN(C)S(=O)(=O)Nc1cccc(C(=O)c2c[nH]c3ncc(-c4ccc(C5CC5)nc4)cc23)c1F [Compound P-0087, 5-(6-cyclopropyl-3-pyridyl)-3-[3-[[ethyl(methyl)sulfamoyl]amino]-2-fluoro-benzoyl]-1H-pyrrolo[2,3-b]pyridine] | < 0.1
N#Cc1ncc(-c2cnc3[nH]cc(C(=O)c4cccc(NS(=O)(=O)N5CCCC5)c4F)c3c2)cn1 [Compound P-0091, N-[3-[5-(2-cyanopyrimidin-5-yl)-1H-pyrrolo[2,3-b]pyridine-3-carbonyl]-2-fluoro-phenyl]pyrrolidine-1-sulfonamide] | < 0.1
CN(C)S(=O)(=O)Nc1cccc(C(=O)c2c[nH]c3ncc(-c4cnc(C#N)nc4)cc23)c1F [Compound P-0096, 5-(2-cyanopyrimidin-5-yl)-3-[3-(dimethylsulfamoylamino)-2-fluoro-benzoyl]-1H-pyrrolo[2,3-b]pyridine] | < 0.1
CN(C)S(=O)(=O)Nc1cccc(C(=O)c2c[nH]c3ncc(-c4ccc(C(C)(C)O)cc4)cc23)c1F [Compound P-0103, 3-[3-(dimethylsulfamoylamino)-2-fluoro-benzoyl]-5-[4-(1-hydroxy-1-methyl-ethyl)phenyl]-1H-pyrrolo[2,3-b]pyridine] | < 0.1
